{"source": "patent US20250114389A1", "about": "“NUCLEOSIDES AND NUCLEOTIDES ANALOGS AS ANTIVIRAL AGENTS” (Emory University, priority 2021, published 2025)", "key": {"[1]": {"experiment": "Single dose range-finding study in Golden Syrian hamsters", "assay_type": "in vivo", "settings": "for Notes (clinical observations): hamster, in vivo, ip", "method": "3 male Syrian hamsters were injected intraperitoneally with a Compound A starting at 5 mg/kg at time 0 with […] administered every 30 minutes upto a final 80 mg/kg. Clinical observations of toxicity were recorded."}, "[2]": {"system": "SARS-CoV-2", "experiment": "Anti-SARS-CoV-2 activity in HAE-HBO (apical-out lung organoids)", "assay_type": "cell-based", "settings": "Severe acute respiratory syndrome coronavirus 2"}, "[3]": {"experiment": "Cytotoxicity in Vero cells", "settings": "African green monkey, Vero kidney cells"}, "[4]": {"system": "SARS-CoV-2", "settings": "at 1 microM; FIGS. 1A-E (monocytes, epithelial cells, extracellular, total virus)"}, "[5]": {"experiment": "Non-compartmental PK analysis of IV and oral Compound A in mice", "assay_type": "in vivo", "settings": "for half-life: read-out: mean terminal t1/2 (converted)", "method": "A study was performed to measure the concentration of Compound A ([…]) over time (hours) when administered orally at a concentration of 30 mg/kg (FIG. 8A) and intravenously at a concentration of 15 mg/kg (FIG. 8B)."}}, "note": "Like-named read-outs stand apart in the source and are kept apart here.", "data": [{"smiles": "N#C[C@@]1(n2ccc(N)nc2=O)O[C@H](CO)[C@@H](O)[C@H]1O", "note": "[Compound A, (2R,3R,4S,5R)-2-(4-amino-2-oxopyrimidin-1(2H)-yl)-3,4-dihydroxy-5-(hydroxymethyl)-tetrahydrofuran-2-carbonitrile]", "values": [{"measurement": "signs of toxicity", "setting": "[1]; IP injection, total dose of 80 mg/kg, hamsters", "value": "no signs of toxicity"}, {"measurement": "Notes (clinical observations)", "setting": "[1]; 55 mg/kg", "value": "B.A.R.* No sign of discomfort"}, {"measurement": "Notes (clinical observations)", "setting": "[1]; 80 mg/kg", "value": "B.A.R.* No sign of discomfort"}, {"measurement": "EC50", "setting": "[2]", "value": 300, "unit": "nM"}, {"measurement": "EC90", "setting": "[2]", "value": 500, "unit": "nM"}, {"measurement": "CC50", "setting": "[3]", "value": "> 100000", "unit": "nM"}, {"measurement": "reduction of viral loads", "setting": "[4]", "value": "2-3 log"}, {"measurement": "oral bioavailability", "setting": "[5]", "value": "excellent oral bioavailability"}, {"measurement": "plasma concentration at start of decline", "setting": "[5]; IV 15 mg/kg, FIG. 8B", "value": "around 10 μg/ml"}, {"measurement": "Mean input time (MIT) into plasma of oral dose", "setting": "[5]; MRTPO−MRTIV", "value": 1.05, "unit": "h"}, {"measurement": "Ka", "setting": "[5]; approximation assuming 1-compartment PK, ~1/MIT", "value": "~0.95", "unit": "h⁻¹"}, {"measurement": "half-life", "setting": "[5]; mouse, plasma, 15 mg/kg, IV dose", "value": 2.23, "unit": "h"}, {"measurement": "half-life", "setting": "[5]; mouse, plasma, 30 mg/kg, oral dose", "value": 2.47, "unit": "h"}, {"measurement": "concentration at 7 h", "setting": "[5]; mouse, plasma, IV 15 mg/kg, over the course of 7 hours, FIG. 8B, read-out: plasma concentration after 7 hours", "value": "~100", "unit": "ng/mL"}, {"measurement": "bioavailability", "setting": "[5]; mouse, plasma, oral 30 mg/kg vs IV 15 mg/kg, excluding PO_m3", "value": 99.5, "unit": "%"}, {"measurement": "AUC", "setting": "[5]; mouse, plasma, oral 30 mg/kg, excluding PO_m3 (possible outlier), read-out: mean oral AUCPO", "value": 28300, "unit": "ng·h/mL"}, {"measurement": "mean oral CL", "setting": "[5]; oral 30 mg/kg, excluding PO_m3", "value": 1.06, "unit": "L/hr per kg"}, {"measurement": "MRTPO", "setting": "[5]; oral dose", "value": 2.65, "unit": "h"}]}]}
